The values below come from patent publication US9090615B2, “Adamantyl derivatives as cannabinoid receptor 2 agonists” (Hoffmann-La Roche Inc., priority 2012, dated 2015).

Where two headings read alike, the source gives them in different places.

The target of test [1] is T1, human CB1 receptors (Homo sapiens, UniProt P21554).
T1 construct: expressed in transfected cells; host or cells: CHO cells
As to the kind of experiment: functional cAMP assay, CHO cells expressing human CB1. Format: cell-based. On the procedure: CHO cells expressing human CB1 or CB2 receptors are seeded 17-24 hours prior to the experiment 50.000 cells per well in a black 96 well plate with flat clear bottom (Corning Costar #3904) in DMEM (Invitrogen No. 31331), 1×HT supplement, with 10% fetal calf serum and incubated at 5% CO2 and 37° C. in a humidified incubator. The growth medium was exchanged with Krebs Ringer Bicarbonate buffer with 1 mM IBMX and incubated at 30° C. for 30 min. Compounds were added to a final assay volume of 100 μl and incubated for 30 min at 30° C. Using the cAMP-Nano-TRF detection kit the assay (Roche Diagnostics) was stopped by the addition of 50 μl lysis reagent (Tris, NaCl, 1.5% Triton X100, 2.5% NP40, 10% NaN3) and 50 μl detection solutions (20 μM mAb Alexa700-cAMP 1:1, and 48 μM Ruthenium-2-AHA-cAMP) and shaken for 2 h at room temperature. The time-resolved energy transfer is measured by a TRF reader (Evotec Technologies GmbH), equipped with a ND:YAG laser as excitation source. The plate is measured twice with the excitation at 355 nm and at the emission with a delay of 100 ns and a gate of 100 ns, total exposure time 10 s at 730 (bandwidth 30 nm) or 645 nm (bandwidth 75 nm), respectively. The FRET signal is calculated as follows: FRET=T730-Alexa730-P(T645-B645) with P=Ru730-B730/Ru645-B645, where T730 is the test well measured at 730 nM, T645 is the test well measured at 645 nm, B730 and B645 are the buffer controls at 730 nm and 645 nm, respectively. cAMP content is determined from the function of a standard curve spanning from 10 μM to 0.1 nM cAMP.
EC50 values were determined using Activity Base analysis (ID Business Solution, Limited). The EC50 values for a wide range of cannabinoid agonists generated from this assay were in agreement with the values published in the scientific literature.
For orientation: cAMP levels reflect the balance of adenylyl cyclase and phosphodiesterase activity.

The target in test [2] is T2, human CB2 receptors (Homo sapiens, UniProt P34972).
T2 construct: expressed in transfected cells; host or cells: CHO cells
As to the kind of experiment: functional cAMP assay, CHO cells expressing human CB2. The format is cell-based. On the procedure:
The growth medium was exchanged with Krebs Ringer Bicarbonate buffer with 1 mM IBMX and incubated at 30° C. for 30 min. Compounds were added to a final assay volume of 100 μl and incubated for 30 min at 30° C. […] The time-resolved energy transfer is measured by a TRF reader (Evotec Technologies GmbH), equipped with a ND:YAG laser as excitation source. The plate is measured twice with the excitation at 355 nm and at the emission with a delay of 100 ns and a gate of 100 ns, total exposure time 10 s at 730 (bandwidth 30 nm) or 645 nm (bandwidth 75 nm), respectively.
EC50 values were determined using Activity Base analysis (ID Business Solution, Limited).

[3] abbreviates: CHO cells expressing human CB1, read-out: Ec50:CB1 - hu cAMP.
Setting [4] is: CHO cells expressing human CB2, read-out: Ec50:CB2 - hu cAMP.

T1 sequence (P21554 whole entry): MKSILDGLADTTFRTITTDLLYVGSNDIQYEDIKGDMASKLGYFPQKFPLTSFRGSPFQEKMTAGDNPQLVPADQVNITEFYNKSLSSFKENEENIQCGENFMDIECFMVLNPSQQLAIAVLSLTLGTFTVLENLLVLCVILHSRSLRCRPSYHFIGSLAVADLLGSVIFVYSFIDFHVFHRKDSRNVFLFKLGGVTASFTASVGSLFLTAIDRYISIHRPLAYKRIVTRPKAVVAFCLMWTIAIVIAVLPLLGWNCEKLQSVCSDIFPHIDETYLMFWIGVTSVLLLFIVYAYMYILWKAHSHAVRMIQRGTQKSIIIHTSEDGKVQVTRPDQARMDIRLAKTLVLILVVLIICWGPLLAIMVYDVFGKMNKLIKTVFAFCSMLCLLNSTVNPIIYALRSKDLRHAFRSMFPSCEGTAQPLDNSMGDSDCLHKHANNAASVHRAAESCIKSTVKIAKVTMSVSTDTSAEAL
T2 sequence (P34972 whole entry): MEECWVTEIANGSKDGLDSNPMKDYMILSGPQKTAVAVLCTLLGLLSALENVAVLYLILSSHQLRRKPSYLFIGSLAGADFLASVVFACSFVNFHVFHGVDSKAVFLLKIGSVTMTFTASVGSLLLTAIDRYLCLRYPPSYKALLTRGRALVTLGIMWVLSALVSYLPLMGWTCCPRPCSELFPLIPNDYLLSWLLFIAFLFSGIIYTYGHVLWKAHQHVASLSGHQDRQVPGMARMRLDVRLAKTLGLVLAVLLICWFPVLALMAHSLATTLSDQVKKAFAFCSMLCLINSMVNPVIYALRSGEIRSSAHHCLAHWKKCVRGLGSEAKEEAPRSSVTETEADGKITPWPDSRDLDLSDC

As a reminder, the EC50 is the concentration that produces a half-maximal response. With `CC1c2ccccc2N(C(=O)C23C[C@H]4C[C@@H](C2)C[C@@H](C3)C4)C1C` (stereo partly drawn) [Example 25, Adamantan-1-yl-(2,3-dimethyl-2,3-dihydro-indol-1-yl)-methanone], the figures for the EC50 in test [1] (setting [3]) and in test [2] (setting [4]) were above 10000 nM and 163 nM, respectively.
In the case of `Cc1ccc2c(c1)CCN2C(=O)C12CC3CC(CC(C3)C1)C2` [Example 26, Adamantan-1-yl-(5-methyl-2,3-dihydro-indol-1-yl)-methanone], the figures for the EC50 in test [1] (setting [3]) and in test [2] (setting [4]) were above 10000 nM and 10.4 nM, respectively.
Turning to `Cc1ccc2c(c1)N(C(=O)C13CC4CC(CC(C4)C1)C3)CC2` [Example 27, Adamantan-1-yl-(6-methyl-2,3-dihydro-indol-1-yl)-methanone], the concentration giving a half-maximal response (EC50) in test [1] (setting [3]) was above 10000 nM; in test [2] (setting [4]), 6.6 nM.
Consider `COc1cccc2c1CCN2C(=O)C12CC3CC(CC(C3)C1)C2` [Example 29, Adamantan-1-yl-(4-methoxy-2,3-dihydro-indol-1-yl)-methanone], for which the EC50 in test [1] (setting [3]) was above 10000 nM; in test [2] (setting [4]) it was 29.6 nM.
With `CN1CCN(C(=O)C23C[C@H]4C[C@@H](C2)C[C@@H](C3)C4)c2ccccc21` [Example 31, Adamantan-1-yl-(4-methyl-3,4-dihydro-2H-quinoxalin-1-yl)-methanone], the concentration giving a half-maximal response (EC50) in test [1] is above 10000 nM; in test [2] it was 28.9 nM.
As to `CC(C)N1CCN(C(=O)C23CC4CC(CC(C4)C2)C3)c2ccccc21` [Example 32, Adamantan-1-yl-(4-isopropyl-3,4-dihydro-2H-quinoxalin-1-yl)-methanone], the EC50 in test [1] is above 10000 nM; in test [2] it was 6.2 nM.
For `CCCCOC1CCN(C(=O)C23CC4CC(CC(C4)C2)C3)c2ccccc21` (stereo not drawn) [Example 34, Adamantan-1-yl-(4-butoxy-3,4-dihydro-2H-quinolin-1-yl)-methanone], in that order: above 10000 nM and 7.2 nM.
As for `CC(C)OC1CCN(C(=O)C23CC4CC(CC(C4)C2)C3)c2ccccc21` (stereo not drawn) [Example 35, Adamantan-1-yl-(4-isopropoxy-3,4-dihydro-2H-quinolin-1-yl)-methanone], the concentration for a half-maximal effect (EC50) in test [1] (setting [3]) was above 10000 nM; in test [2] (setting [4]), 122 nM.
As to `O=C(C1[C@H]2C[C@@H]3C[C@@H](C[C@H]1C3)C2)N1CCc2ccccc21` (stereo partly drawn) [Example 37, Adamantan-2-yl-(2,3-dihydro-indol-1-yl)-methanone], the EC50 in test [1] was above 10000 nM; in test [2] it was 6.7 nM.
Regarding `O=C(NC12CC3CC(CC(C3)C1)C2)N1CCc2ccccc21` [Example 38, 2,3-Dihydro-indole-1-carboxylic acid adamantan-1-ylamide], the concentration for a half-maximal effect (EC50) in test [1] (setting [3]) is above 10000 nM; in test [2] (setting [4]), 2.4 nM.
For `O=C(N1CCc2cc(F)c(F)cc21)C12CC3CC(CC(C3)C1)C2` [Example 39, Adamantan-1-yl-(5,6-difluoro-2,3-dihydro-indol-1-yl)-methanone], the 50% effective concentration (EC50) was above 10000 nM in test [1] (setting [3]) and 17.6 nM in test [2] (setting [4]).
Take `O=C1C2CC3CC1CC(C(=O)N1CCc4ccccc41)(C3)C2` [Example 40, 5-(2,3-Dihydro-indole-1-carbonyl)-adamantan-2-one]: the values for the EC50 in test [1] (setting [3]) and in test [2] (setting [4]) were above 10000 nM and 594 nM, respectively.
Turning to `O=C(N1Cc2cc(Cl)c(N3CCOCC3)cc2C1)C12CC3CC(CC(C3)C1)C2` [Example 43, Adamantan-1-yl-(5-chloro-6-morpholin-4-yl-1,3-dihydro-isoindol-2-yl)-methanone], the results for the EC50 in test [1] and in test [2] were above 10000 nM and 82.2 nM, respectively.
Regarding `O=C(N1Cc2cccc(F)c2C1)C12CC3CC(CC(C3)C1)C2` [Example 44, Adamantan-1-yl-(4-fluoro-1,3-dihydro-isoindol-2-yl)-methanone], the figures for the EC50 in test [1] (setting [3]) and in test [2] (setting [4]) were above 10000 nM and 58.9 nM, respectively.
Taken in the same sequence, the figures for `O=C(N1Cc2ccc(F)cc2C1)C12CC3CC(CC(C3)C1)C2` [Example 45, Adamantan-1-yl-(5-fluoro-1,3-dihydro-isoindol-2-yl)-methanone] were above 10000 nM and 41.7 nM.
